# In patent US5135936A, “Isomers of 1-azabicyclo[2.2.2]oct-3-yl methyl 1,4-dihydro-2,6-dimethyl-4-(3-nitrophenyl)-3,5-pyridinediacarboxylic and their use as calcium antagonists” (Marion Merrell Dow Inc., priority 1991, dated 1992):
# Where a name gives a salt, the structure may show the parent alone.
# Tests used:
# [1] = tested on: [3H]-nitrendipine binding; conditions: rank among the enantiomers, in words; cited from earlier work
# [2] = in words; cited from earlier work
# Guinea Pig Ileum = molecular target: T1, Guinea Pig Ileum (Cavia porcellus, UniProt O35505); test: Calcium Channel Antagonist Activity in Guinea Pig Isolated Ileal Smooth Muscle (inhibition of Ca++ evoked contractions); conditions: concentration producing a two-fold rightward shift in the control Ca++ curve; KCl-depolarized (80 mM) longitudinal smooth muscle
# T1 construct: The longitudinal smooth muscle is carefully separated from the underlying circular muscle layer; from tissue; host or cells: guinea pig ileum (terminal 10 cm discarded), isolated longitudinal smooth muscle
# T1 sequence (O35505 whole entry): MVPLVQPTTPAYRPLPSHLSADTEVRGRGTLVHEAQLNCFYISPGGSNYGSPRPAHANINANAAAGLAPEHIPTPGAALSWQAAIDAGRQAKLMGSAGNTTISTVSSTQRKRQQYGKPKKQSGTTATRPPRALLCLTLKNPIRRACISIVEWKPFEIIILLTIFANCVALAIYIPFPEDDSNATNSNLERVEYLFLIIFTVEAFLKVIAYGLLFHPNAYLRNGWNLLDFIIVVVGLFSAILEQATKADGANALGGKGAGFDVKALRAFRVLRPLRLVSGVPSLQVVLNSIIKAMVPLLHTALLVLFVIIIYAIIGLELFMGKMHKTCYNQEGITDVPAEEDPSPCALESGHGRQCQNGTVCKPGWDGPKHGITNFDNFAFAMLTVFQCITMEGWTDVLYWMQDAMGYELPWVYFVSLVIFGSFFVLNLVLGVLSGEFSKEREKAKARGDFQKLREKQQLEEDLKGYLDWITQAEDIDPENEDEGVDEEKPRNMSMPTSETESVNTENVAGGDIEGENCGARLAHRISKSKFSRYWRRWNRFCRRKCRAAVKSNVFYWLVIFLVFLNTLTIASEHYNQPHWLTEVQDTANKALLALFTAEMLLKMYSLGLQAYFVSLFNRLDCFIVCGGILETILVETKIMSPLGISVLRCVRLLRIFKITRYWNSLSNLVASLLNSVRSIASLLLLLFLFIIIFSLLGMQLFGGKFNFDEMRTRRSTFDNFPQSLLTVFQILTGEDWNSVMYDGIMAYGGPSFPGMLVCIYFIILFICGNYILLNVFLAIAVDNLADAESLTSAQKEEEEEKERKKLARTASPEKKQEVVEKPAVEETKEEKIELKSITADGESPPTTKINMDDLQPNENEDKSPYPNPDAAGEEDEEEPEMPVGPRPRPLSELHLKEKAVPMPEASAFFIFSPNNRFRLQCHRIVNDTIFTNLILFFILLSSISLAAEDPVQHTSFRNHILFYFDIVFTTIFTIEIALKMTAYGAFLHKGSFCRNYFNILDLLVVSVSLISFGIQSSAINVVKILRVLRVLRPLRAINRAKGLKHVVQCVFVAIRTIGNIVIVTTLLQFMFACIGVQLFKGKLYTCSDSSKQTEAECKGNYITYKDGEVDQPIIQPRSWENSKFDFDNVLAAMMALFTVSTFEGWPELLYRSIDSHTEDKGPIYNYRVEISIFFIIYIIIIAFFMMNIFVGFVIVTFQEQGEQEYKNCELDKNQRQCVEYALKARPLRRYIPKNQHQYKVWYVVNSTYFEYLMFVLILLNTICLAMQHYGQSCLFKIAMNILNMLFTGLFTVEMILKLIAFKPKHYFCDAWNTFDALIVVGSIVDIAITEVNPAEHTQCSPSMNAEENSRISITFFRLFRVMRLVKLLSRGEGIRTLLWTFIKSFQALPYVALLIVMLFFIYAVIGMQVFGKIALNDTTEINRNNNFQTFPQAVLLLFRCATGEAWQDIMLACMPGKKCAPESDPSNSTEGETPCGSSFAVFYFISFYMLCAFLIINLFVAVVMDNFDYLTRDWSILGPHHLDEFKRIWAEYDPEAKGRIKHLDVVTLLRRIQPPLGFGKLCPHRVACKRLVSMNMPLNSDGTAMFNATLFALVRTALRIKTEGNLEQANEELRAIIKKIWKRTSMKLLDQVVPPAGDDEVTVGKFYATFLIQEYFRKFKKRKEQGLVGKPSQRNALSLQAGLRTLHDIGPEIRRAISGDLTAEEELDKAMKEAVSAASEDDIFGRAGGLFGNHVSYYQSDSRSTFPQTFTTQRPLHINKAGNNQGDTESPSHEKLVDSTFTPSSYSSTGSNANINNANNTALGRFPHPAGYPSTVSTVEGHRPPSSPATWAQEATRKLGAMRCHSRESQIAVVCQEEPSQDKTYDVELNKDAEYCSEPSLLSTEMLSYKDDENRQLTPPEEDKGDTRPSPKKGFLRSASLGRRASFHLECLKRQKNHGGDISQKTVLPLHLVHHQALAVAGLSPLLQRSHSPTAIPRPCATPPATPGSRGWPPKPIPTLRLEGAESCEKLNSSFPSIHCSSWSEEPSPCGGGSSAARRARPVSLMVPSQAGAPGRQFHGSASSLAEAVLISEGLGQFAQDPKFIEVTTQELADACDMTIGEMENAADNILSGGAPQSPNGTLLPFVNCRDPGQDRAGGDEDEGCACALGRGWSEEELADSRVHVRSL
# Description: Calcium Channel Antagonist Activity in Guinea Pig Isolated Ileal Smooth Muscle
# Male albino guinea pigs are sacrificed by stunning and exsanguination. The abdominal cavity is opened and the small intestine is removed, with about 10 cm of the terminal ileum being discarded. The tissue is placed in a dish containing Tyrode's solution of the following composition (in mM): NaCl 136.90; KCl 2.68; NaHCO3 11.90; NaH2 PO4 0.36; MgCl2 0.98; CaCl2 1.77; dextrose 5.55 and cut into three to four segments. A glass rod (6 mm diameter) is carefully inserted into the lumen of each segment and excess connective tissue or fat is removed. The longitudinal smooth muscle is carefully separated from the underlying circular muscle layer by gently stroking a moist cotton swab on a tangent to shallow, longitudinal incisions made parallel to the mesenteric attachment. Using gentle traction, and taking care to keep the segment moist at all times, the preparation is stripped from the remaining length of the ileal segment (Paton, W. D. M.; Zar, M. A.; J. Physiol. 1968, 194, 13.)
# Each preparation is suspended in a 10 mL jacketed glass tissue bath containing Tyrode's solution maintained at 37° C. and gassed with 5% CO2 in O2. The preparation is attached by silk thread to a force-displacement transducer. […] The initial resting tension is adjusted to 0.5 g and the preparation equilibrated for 55 min prior to experimentation. At the end of this period, the bathing solution is replaced with Ca^++ free Tyrode's solution. This solution is prepared by omitting CaCl2. The preparation is washed four times in Ca^++ free Tyrode's solution to remove any Ca^++ remaining in the bath, and allowed to equilibrate for a further 20 min.
# Experimental Protocol. Concentration-response curves to CaCl2 are obtained using the following procedure. Preparations are exposed to a depolarizing concentration of KCl (80 mM) for 6 min. At the end of this period CaCl2 is added to the bath cumulatively in the concentration range 0.2-8.0 mM. Successive additions of each Ca^++ concentration are carried out only when the previous response has reached a plateau. When the maximum response has been attained the bath is again washed (five times) with Ca^++ free buffer, and the preparation re-equilibrated for approximately 15 min. A second Ca^++ concentration-response curve is then obtained in the same manner. This second curve serves as control for that tissue.
# Further curves are obtained in the presence of increasing concentrations of the test drugs. Where appropriate, the test drug is added to the bath immediately following addition of KCl, and 6 minutes later the concentration-response curve to Ca^++ is obtained. Each test preparation is exposed to three different concentrations of a test drug. […]
# [3] = molecular target: [3H]-Nitrendipine Binding in Rat Cortical Membranes; test: Inhibition of [3H]-Nitrendipine Binding in Rat Cortical Membranes; conditions: rat cortex, room temperature, 90 min
# Method: [3H]-Nitrendioine Bindino in Rat Cortex
# Animals were decapitated and the cortical tissue was dissected, weighed and polytroned in about 20 volumes (w/v) of ice cold buffer ([…] TRIS HCl, pH 7.5). The tissue was then washed 3 times via centrifugation (20,000 rpm for 10 min at 4° C.) with subsequent resuspension in fresh buffer. The final pellet was resuspended prior to the assay at 22.5 mg/mL […]. Incubations were performed at room temperature for 90 min in each assay. These incubations were done in triplicate in a final assay volume of 2.0 mL. Non-specific binding was determined by the addition of 1 uM nifedipine for the [3H]-nitrendipine assay each to triplicate set of tubes. Reactions in each assay were terminated by filtration using a Brandel Cell Harvester followed by washing with ice cold buffer.
# For preliminary evaluations in each assay, all compounds were examined at four log concentrations (1 nM-1 uM). full displacement curves were generated on all compounds showing inhibition of specific binding of 50% or greater at a 1 uM drug concentration. Standard reference compounds were included and evaluated in each assay. Analysis of data was done using both the EBDA Scafit program and HP-11C linear regression.
# [3H]-yohimbine binding = rank among the enantiomers, in words; cited from earlier work
# [4] = tested on: spontaneously hypertensive rats; conditions: rank among the enantiomers, in words; cited from earlier work
smiles,measurement,setting,value
"COC(=O)C1=C(C)NC(C)=C(C(=O)O[C@H]2CCN(Cc3ccccc3)C2)[C@H]1c1cccc([N+](=O)[O-])c1 [(S,S)-enantiomer of 1-benzyl-3-pyrrolidinyl ester]",Ca++ channel blocking activity as determined by inhibition of [3H]-nitrendipine binding,[1],greatest
"COC(=O)C1=C(C)NC(C)=C(C(=O)OC(C)C)[C@@H]1c1cccc2nonc12 [(R)-enantiomer of PN 200-110, isopropyl methyl 4-(2,1,3-benzoxadiazol-4-yl) -1,4-dihydro-2,6-dimethyl-3,5-pyridinedicarboxylate]",blood flow to the heart and brain,[2],increased
same,cardiac output,[2],increased
same,effect on blood pressure,[2],almost no effect
same,effect on heart rate,[2],almost no effect
same,potency in the subendocardium of the left ventricle,[2],surprisingly potent
"COC(=O)C1=C(C)NC(C)=C(C(=O)O[C@H]2CN3CCC2CC3)[C@@H]1c1cccc([N+](=O)[O-])c1 [(R,R)-I, (R,R)-1-Azabicyclo[2.2.2]oct-3-yl methyl 1,4-dihydro-2,6-dimethyl-4-(3-nitrophenyl)-3,5-pyridinedicarboxylate]",Kb,Guinea Pig Ileum,34 nM
same,Ki,[3],11 nM
"COC(=O)C1=C(C)NC(C)=C(C(=O)OCCN(C)C[C@@H]2COc3ccccc3O2)[C@@H]1c1cccc([N+](=O)[O-])c1 [2-[N-methyl-N-[(2,3-dihydro-1,4-benzodioxin-2-yl)methyl]amino]ethyl methyl 2,6-dimethyl-4-(3-nitrophenyl)-1,4-dihydropyridine-3,5-dicarboxylate]",inhibition of [3H]-nitrendipine binding,[1],most potent
"COC(=O)C1=C(C)NC(C)=C(C(=O)O[C@H]2CN3CCC2CC3)[C@H]1c1cccc([N+](=O)[O-])c1 [(R,S)-I, (R,S)-1-Azabicyclo[2.2.2]oct-3-yl methyl 1,4-dihydro-2,6-dimethyl-4-(3-nitrophenyl)3,5-pyridinedicarboxylate]",Kb,Guinea Pig Ileum,174 nM
same,Ki,[3],56 nM
"COC(=O)C1=C(C)NC(C)=C(C(=O)O[C@H]2CN3CCC2CC3)[C@H]1c1cccc([N+](=O)[O-])c1 [(S,R)-I, (S,R)-1-azabicyclo[2.2.2]oct-3-yl methyl 1,4-dihydro-2,6-dimethyl-4-(3-nitrophenyl)-3,5pyridinedicarboxylate, hydrochloride]",Kb,Guinea Pig Ileum,3160 nM
"COC(=O)C1=C(C)NC(C)=C(C(=O)O[C@@H]2CN3CCC2CC3)[C@H]1c1cccc([N+](=O)[O-])c1 [(S,S)-I, (S,S)-1-Azabicyclo[2.2.2]oct-3-yl methyl 1,4-dihydro-2,6-dimethyl-4-(3-nitrophenyl)-3,5-pyridinedicarboxylate]",Kb,Guinea Pig Ileum,1620 nM
"COC(=O)C1=C(C)NC(C)=C(C(=O)OCCN(C)C[C@H]2COc3ccccc3O2)[C@H]1c1cccc([N+](=O)[O-])c1 [2-[N-methyl-N-[(2,3-dihydro-1,4-benzodioxin-2-yl)methyl]amino]ethyl methyl 2,6-dimethyl-4-(3-nitrophenyl)-1,4-dihydropyridine-3,5-dicarboxylate]",inhibition of [3H]-yohimbine binding,[3H]-yohimbine binding,most potent
"COC(=O)C1=C(C)NC(C)=C(C(=O)O[C@H]2CCCN(Cc3ccccc3)C2)[C@H]1c1cccc([N+](=O)[O-])c1 [(S,S)-enantiomer of 1-benzyl-3-piperidinyl ester]",Ca++ channel blocking activity as determined by lowering of blood pressure in spontaneously hypertensive rats,[4],greatest
"COC(=O)C1=C(C)NC(C)=C(C(=O)OC(C)C)[C@H]1c1cccc2nonc12 [(S)-enantiomer of PN 200-110, isopropyl methyl 4-(2,1,3-benzoxadiazol-4-yl) -1,4-dihydro-2,6-dimethyl-3,5-pyridinedicarboxylate]",blood flow to the heart and brain,[2],increased
same,cardiac output,[2],increased
same,effect on blood pressure,[2],lowered
same,effect on heart rate,[2],lowered
